Test results from patent EP4559896A1, “PH-SENSITIVE CATIONIC LIPID AND LIPID NANOPARTICLE” (National University Corporation Hokkaido University, priority 2022, dated 2024).

Columns and labels:
[1] = average particle size and polydispersity index by dynamic light scattering; type: physicochemical; details: Fluc mRNA-loaded lipid nanoparticles
Description: The average particle size (number average value), ζ-average particle size, and polydispersity index (PdI) of the lipid nanoparticles in PBS(-) (pH 7.4), and the zeta potential in 10 mM HEPES buffer (pH 7.4) were measured using an analyzer "Zetasizer Nano ZS ZEN3600" (manufactured by Malvern) utilizing dynamic light scattering.

[2] = encapsulation rate of lipid nanoparticles (RiboGreen); type: physicochemical; details: Fluc mRNA-loaded lipid nanoparticles
Description: The encapsulation rate of the lipid nanoparticles was determined by measuring the amount of encapsulated nucleic acid (mRNA) using RiboGreen (manufactured by Life Technologies), which is an RNAintercalator. The amount of mRNA was quantified based on a calibration curve prepared from a dilution series solution of mRNA at a known concentration.
Specifically, 10 mM HEPES buffer (pH 7.4), 10 w/v% Triton X-100, and RiboGreen were mixed at 978.8 µL, 20 µL, and 1.25 µL per 10 wells, respectively, to obtain a Triton(+) buffer. A Triton(-) buffer was obtained in replacing Triton X-100 with 10 mM HEPES buffer (pH 7.4). 100 µL/well of the sample was added to a black 96-well plate for fluorescence measurement, and 100 µL/well of Triton(+) buffer or Triton(-) buffer was added. After the plate was gently shaken on a shaking incubator (SI-300, manufactured by AS ONE) (700 rpm, 30 seconds), the fluorescence intensity of each well was measured using a microplate reader (VARIOSKAN LUX, manufactured by Thermo Fisher Scientific) (wavelength Ex/Em=500 nm/525 nm), and the nucleic acid encapsulation rate (%) was calculated.

BALB/c mice = assay: Fluc activity in tissues of mice administered with Fluc mRNA-loaded lipid nanoparticles; type: in vivo; details: for luciferase activity in the lung compared with control mice (CL4F6-containing lipid nanoparticles) / luciferase activity in the heart compared with control mice (CL4F6-containing lipid nanoparticles) / luciferase activity in the muscle compared with control mice (CL4F6-containing lipid nanoparticles) / luciferase activity in the spleen compared with control mice (CL4F6-containing lipid nanoparticles): TOT/DSPC/chol/PEG-DMG=65/15/20/1.5, control CL4F6/DSPC/chol/PEG-DMG=50/10/40/1.5 (mol%)
Description: Lipid nanoparticles were administered to mice by intravenous injection into the tail vein using a 27G needle. Unless otherwise specified, BALB/c mice (4 to 5 weeks old, female) were used.
First, BALB/c mice (female, 4 weeks old) were intravenously injected with lipid nanoparticles encapsulating Fluc mRNA (Fluc mRNA-loaded lipid nanoparticles) at a dose of 0.01 mg mRNA/kg. Six hours after intravenous injection, the mice were euthanized, each tissue was collected, frozen in liquid nitrogen, and stored at -80°C. The tissues were homogenized in passive lysis buffer (manufactured by Promega) using a bead-type cell disruptor (Micro Smash MS-100R, manufactured by TOMY Seiko). Tissue debris was removed by centrifugation, and the supernatant was collected. Fluc activity in the supernatant was measured using the Luciferase Assay System (E1500, manufactured by Promega) according to the manufacturer's protocol. Luminescence was measured using a luminometer (Luminescencer-PSN, manufactured by ATTO). Protein concentration was determined using a commercially available assay kit (BCA Protein Assay Kit, manufactured by Pierce). Fluc activity was expressed as relative light units (RLU) per mg of protein.
Specifically, first, each lipid nanoparticle was intravenously administered into the tail vein of mice in an amount of 0.2 mg/kg of Fluc mRNA, and 6 hours after administration of the lipid nanoparticles, about 50 mg each of the liver, spleen, lung, heart, brain, and muscle was collected and stored frozen. 500 µL of passive lysis buffer (manufactured by Promega) was added to each tube containing the collected organ. The liver was homogenized at 4000 rpm for 20 seconds twice, the spleen, kidney, lung, and heart were homogenized at 5000 rpm for 20 seconds twice, and the muscle was homogenized at 5000 rpm for 20 seconds four times; then, the homogenate was centrifuged at 13000 rpm at 4°C for 10 minutes, and the supernatant was collected as a sample for measurement. The liver and spleen were diluted 100 times with passive lysis buffer. 50 µL of a measurement sample (tissue supernatant) was mixed with 50 µL of luciferase assay buffer of the Luciferase Assay System (E1500, manufactured by Promega) previously added in a test tube by pipetting, and the amount of luminescence was measured with a luminometer. Protein concentration was determined using a commercially available assay kit (BCA Protein Assay Kit, manufactured by Pierce). Fluc activity was expressed as relative light units (RLU) per mg of protein.

[3] = TOT-4/DSPC/chol/PEG-DMG=65/15/20/1.5, CL4F6/DSPC/chol/PEG-DMG=50/10/40/1.5 (mol%)
[4] = TOT/DSPC/chol/PEG-DMG=65/15/20/1.5 (mol%)
[5] = Example 16, TOT/DSPC/chol/PEG-DMG=65/15/20/1.5 (mol%), i.v. tail vein
[6] = Example 15, TOT-4/PC/chol/PEG-DMG=65/15/20/1 (mol%), PC = DSPC, i.v. tail vein

| Compound | PdI [1, 4] | ζ-Average Particle Size [1, 4] [nm] | Encapsulation Rate [2, 4] [%] | luciferase activity in the lung compared with control mice (CL4F6-containing lipid nanoparticles) (BALB/c mice; Example 33, i.v. tail vein) | luciferase activity in the heart compared with control mice (CL4F6-containing lipid nanoparticles) (BALB/c mice; Example 33, i.v. tail vein) | other results |
| --- | --- | --- | --- | --- | --- | --- |
| 7-(4-(diisopropylamino)butyl)-13-((2-hexylnonanoyl)oxy)-7-hydroxytridecyl 2-hexyldecanoate [CL4F6, reference compound] |  |  |  |  |  | Number Average Particle Size [1, 3]: 59.4 nm; PdI [1, 3]: 99.0; ζ-Average Particle Size [1, 3]: 90.7 nm |
| CCCCCCCC/C=C\CCCCCCCC(=O)OCC(COC(=O)CCCCCCC/C=C\CCCCCCCC)(COC(=O)CCCCCCC/C=C\CCCCCCCC)NC(=O)CCN(C)C [TOT-1, 2-(3-(dimethylamino)propanamido)-2-((oleoyloxy)methyl)propane-1,3-diyl dioleate] | 0.324 | 138.0 | 85.9 |  |  |  |
| CCCCCCCC/C=C\CCCCCCCC(=O)OCC(COC(=O)CCCCCCC/C=C\CCCCCCCC)(COC(=O)CCCCCCC/C=C\CCCCCCCC)NC(=O)CCCN(C)C [TOT-2, 2-(4-(dimethylamino)butanamido)-2-((oleoyloxy)methyl)propane-1,3-diyl dioleate] | 0.347 | 166.2 | 92.3 | higher |  | Fluc activity (RLU/mg protein) in the liver (BALB/c mice; [5]): confirmed in the liver in all the mice except for those administered with Fluc mRNA-loaded lipid nanoparticles using TOT-2 |
| CCCCCCCC/C=C\CCCCCCCC(=O)OCC(COC(=O)CCCCCCC/C=C\CCCCCCCC)(COC(=O)CCCCCCC/C=C\CCCCCCCC)NC(=O)C1CCN(C)CC1 [TOT-3, 2-(1-methylpiperidine-4-carboxamide)-2-((oleoyloxy)methyl)propane-1,3-diyl dioleate] | 0.344 | 167.2 | 92.3 | higher |  |  |
| CCCCCCCC/C=C\CCCCCCCC(=O)OCC(COC(=O)CCCCCCC/C=C\CCCCCCCC)(COC(=O)CCCCCCC/C=C\CCCCCCCC)NC(=O)CCN(CC)CC [TOT-4, 2-(3-(diethylamino)propanamido)-2-((oleoyloxy)methyl)propane-1,3-diyl dioleate] | 0.157 | 134.3 | 83.5 | higher | very high | Number Average Particle Size [1, 3]: 33.5 nm; ζ-Average Particle Size [1, 3]: 134.3 nm; Fluc activity (RLU/mg protein) in the liver and spleen (BALB/c mice; Example 13, TOT/DOPE/chol/PEG-DMG=60/15/25/1.0 (mol%), i.v. tail vein): very high; Fluc activity in the spleen compared with the liver (BALB/c mice; Example 15, TOT-4/PC/chol/PEG-DMG=65/15/20/1 (mol%), PC = DPPC, i.v. tail vein): higher Fluc activity in the spleen than in the liver; Fluc activity (RLU/mg protein) in the liver and spleen (BALB/c mice; Example 15, TOT-4/PC/chol/PEG-DMG=65/15/20/1 (mol%), PC = DSPC, DPPC, POPC, or DOPC, i.v. tail vein): confirmed; Fluc activity (RLU/mg protein) in the liver (BALB/c mice; [6]): relatively suppressed; Fluc activity in the spleen compared with the liver (BALB/c mice; [6]): higher Fluc activity in the spleen than in the liver; Fluc activity (RLU/mg protein) in the spleen (BALB/c mice; [5]): very high; gene expression in the spleen, times higher than Fluc mRNA-loaded lipid nanoparticles using RNA-LPX (BALB/c mice; Example 17, TOT-4/DSPC/chol/PEG-DMG=65/15/20/1.5 (mol%) versus RNA-LPX (DOTMA/DOPE=50/50 mol%), i.v. tail vein): 24 times; gene expression in the spleen and liver (BALB/c mice; Example 18, TOT-4/DSPC/chol/PEG-DMG=65/15/20/1.5 (mol%), similar to CL4F6/DSPC/chol/PEG-DMG=50/10/40/1.5, i.v. tail vein): high; luciferase activity in the spleen, lung, brain, heart, and muscle compared with CL4F6-containing lipid nanoparticles (BALB/c mice; Example 19, TOT-4/DSPC/chol/PEG-DMG=65/15/20/1.5 versus CL4F6/DSPC/chol/PEG-DMG=50/10/40/1.5 (mol%), i.v. 0.2 mg/kg of Fluc mRNA, 6 hours, N=3): higher; luciferase activity in the brain (BALB/c mice; Example 33, TOT/DSPC/chol/PEG-DMG=65/15/20/1.5 (mol%), i.v. tail vein): remarkably high; luciferase activity in the muscle compared with control mice (CL4F6-containing lipid nanoparticles) (BALB/c mice; Example 33, i.v. tail vein): very high; luciferase activity in the spleen compared with control mice (CL4F6-containing lipid nanoparticles) (BALB/c mice; Example 33, i.v. tail vein): higher; Encapsulation Rate [2, 3]: 0.157% |
| CCCCCCCC/C=C\CCCCCCCC(=O)OCC(COC(=O)CCCCCCC/C=C\CCCCCCCC)(COC(=O)CCCCCCC/C=C\CCCCCCCC)NC(=O)CN [TOT-6, 2-(2-aminoacetamido)-2-((oleoyloxy)methyl)propane-1,3-diyl dioleate] | 0.190 | 102.5 | 95.4 |  |  |  |
| CCCCCCCC/C=C\CCCCCCCC(=O)OCC(COC(=O)CCCCCCC/C=C\CCCCCCCC)(COC(=O)CCCCCCC/C=C\CCCCCCCC)NC(=O)CNC [TOT-7, 2-(2-(methylamino)acetamido)-2-((oleoyloxy)methyl)propane-1,3-diyl dioleate] | 0.232 | 128.0 | 92.4 |  | higher |  |
| CCCCCCCC/C=C\CCCCCCCC(=O)OCC(COC(=O)CCCCCCC/C=C\CCCCCCCC)(COC(=O)CCCCCCC/C=C\CCCCCCCC)NC(=O)[C@@H](N)CO [TOT-8, 2-((S)-2-amino-3-hydroxypropanamido)-2-((oleoyloxy)methyl)propane-1,3-diyl dioleate] | 0.213 | 87.1 | 85.7 |  |  |  |
| CCCCCCCC/C=C\CCCCCCCC(=O)OCC(COC(=O)CCCCCCC/C=C\CCCCCCCC)(COC(=O)CCCCCCC/C=C\CCCCCCCC)NC(=O)CCN(C)CC [TOT-16, 2-(3-(ethyl(methyl)amino)propanamido)-2-((oleoyloxy)methyl)propane-1,3-diyl dioleate] | 0.180 | 99.2 | 87.6 |  | higher | luciferase activity in the muscle compared with control mice (CL4F6-containing lipid nanoparticles) (BALB/c mice; Example 33, i.v. tail vein): higher; luciferase activity in the spleen compared with control mice (CL4F6-containing lipid nanoparticles) (BALB/c mice; Example 33, i.v. tail vein): higher |
| CCCCCCCC/C=C\CCCCCCCC(=O)OCC(COC(=O)CCCCCCC/C=C\CCCCCCCC)(COC(=O)CCCCCCC/C=C\CCCCCCCC)NC(=O)C1CCN(C)C1 (stereo not drawn) [TOT-20, 2-(1-methylpyrrolidine-3-carboxamide)-2-((oleoyloxy)methyl)propane-1,3-diyl dioleate] | 0.263 | 201.8 | 94.7 |  |  |  |
